From US20090170940A1 (priority 2007, published 2009)
Structures can show the parent of a compound that is named as a salt.

Columns and labels:
humans = conditions: cited from earlier work

For `CNC(=O)Oc1cccc2c1OC(C)(C)C2` [Furadan, 2,3-dihydro-2,2-dimethyl-7-benzofuranyl methylcarbamate], the “% Eclosion” value (nematode eggs) is given as 0.05% and the “amount that can be fatal” value (humans) is given as 1 mL.
With `CCOC=O` [ethyl formate] the “% Eclosion” value (nematode eggs) was 0.05%.
